Results from PubChem BioAssay (NCI).
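Exposure lasted 48 hours, with cells grown in 96-well plates and compounds tested at five concentrations. GI50 = concentration required for 50% inhibition of growth. Definition used: TGI = concentration required for complete inhibition of growth.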

Key:
Test in all cases: inhibition of tumour cell growth, NCI panel, 48 h; in the data active means GI50 below about 0.43 µM; inactive means the rest
MDA-MB-435 = tested on: MDA-MB-435
RXF 393 renal = tested on: RXF 393 renal
SF-295 CNS = tested on: SF-295 CNS
OVCAR-5 ovarian = tested on: OVCAR-5 ovarian
K-562 leukemia = tested on: K-562 leukemia
TK-10 renal = tested on: TK-10 renal
M14 melanoma = tested on: M14 melanoma
DU-145 prostate = tested on: DU-145 prostate
KM12 colon = tested on: KM12 colon
NCI-H226 lung = tested on: NCI-H226 lung
MALME-3M melanoma = tested on: MALME-3M melanoma
U251 CNS = tested on: U251 CNS
HOP-92 NSCLC = tested on: HOP-92 NSCLC
OVCAR-4 ovarian = tested on: OVCAR-4 ovarian
MCF7 breast = tested on: MCF7 breast
PC-3 prostate = tested on: PC-3 prostate
HCC-2998 colon = tested on: HCC-2998 colon
NCI-H522 lung = tested on: NCI-H522 lung
SNB-19 CNS = tested on: SNB-19 CNS
SF-539 CNS = tested on: SF-539 CNS
NCI-H23 lung = tested on: NCI-H23 lung
A498 renal = tested on: A498 renal
MDA-MB-468 breast = tested on: MDA-MB-468 breast
OVCAR-8 ovarian = tested on: OVCAR-8 ovarian
NCI-H460 lung = tested on: NCI-H460 lung
HT29 colon = tested on: HT29 colon
SK-MEL-2 melanoma = tested on: SK-MEL-2 melanoma
HL-60(TB) leukemia = tested on: HL-60(TB) leukemia
LOX IMVI melanoma = tested on: LOX IMVI melanoma
SW-620 colon = tested on: SW-620 colon
EKVX NSCLC = tested on: EKVX NSCLC
COLO 205 colon = tested on: COLO 205 colon
SNB-75 CNS = tested on: SNB-75 CNS
NCI/ADR-RES ovarian = tested on: NCI/ADR-RES ovarian
SK-OV-3 ovarian = tested on: SK-OV-3 ovarian
HOP-62 NSCLC = tested on: HOP-62 NSCLC
CCRF-CEM leukemia = tested on: CCRF-CEM leukemia
UACC-62 melanoma = tested on: UACC-62 melanoma
CAKI-1 renal = tested on: CAKI-1 renal
ACHN renal = tested on: ACHN renal
HCT-116 colon = tested on: HCT-116 colon
SK-MEL-28 melanoma = tested on: SK-MEL-28 melanoma
786-0 renal = tested on: 786-0 renal
A549 NSCLC = tested on: A549 NSCLC
SF-268 CNS = tested on: SF-268 CNS
HS 578T breast = tested on: HS 578T breast
MDA-MB-231 breast = tested on: MDA-MB-231 breast
HCT-15 colon = tested on: HCT-15 colon
RPMI-8226 leukemia = tested on: RPMI-8226 leukemia
OVCAR-3 ovarian = tested on: OVCAR-3 ovarian
UO-31 renal = tested on: UO-31 renal
SK-MEL-5 melanoma = tested on: SK-MEL-5 melanoma
IGROV1 ovarian = tested on: IGROV1 ovarian
UACC-257 melanoma = tested on: UACC-257 melanoma
T-47D breast = tested on: T-47D breast
SN12C renal = tested on: SN12C renal
MOLT-4 leukemia = tested on: MOLT-4 leukemia
BT-549 breast = tested on: BT-549 breast

COC1=C[C@]23CCC(=O)N2CCc2cc4c(cc2[C@@H]3[C@@H]1OC(=O)[C@H](C)O)OCO4
36.4 µM: TGI (U251 CNS)
16.2 µM: TGI (MALME-3M melanoma)
14.8 µM: TGI (SF-539 CNS)
13.1 µM: TGI (NCI-H460 lung)
10.2 µM: TGI (MCF7 breast)
45.5 µM: TGI (MDA-MB-435)
32.1 µM: TGI (A498 renal)
> 52 µM: TGI (OVCAR-5 ovarian) | TGI (K-562 leukemia) | TGI (TK-10 renal) | TGI (DU-145 prostate) | TGI (KM12 colon) | TGI (OVCAR-4 ovarian) | TGI (HT29 colon) | TGI (SK-MEL-2 melanoma) | TGI (HL-60(TB) leukemia) | TGI (SW-620 colon) | TGI (EKVX NSCLC) | TGI (NCI/ADR-RES ovarian) | TGI (HOP-62 NSCLC) | TGI (UACC-62 melanoma) | TGI (CAKI-1 renal) | TGI (HCT-116 colon) | TGI (SF-268 CNS) | TGI (MDA-MB-231 breast) | TGI (IGROV1 ovarian) | TGI (SN12C renal) | TGI (MOLT-4 leukemia)
10.5 µM: TGI (HCC-2998 colon)
13.3 µM: TGI (LOX IMVI melanoma)
25 µM: TGI (HCT-15 colon)
30.3 µM: TGI (SNB-75 CNS)
17.7 µM: TGI (NCI-H522 lung)
47.1 µM: TGI (T-47D breast)
42.9 µM: TGI (786-0 renal)
32.8 µM: TGI (BT-549 breast)
15.1 µM: TGI (MDA-MB-468 breast)
42.2 µM: TGI (OVCAR-3 ovarian)
39.3 µM: TGI (UO-31 renal)
35.6 µM: TGI (HS 578T breast)
36.3 µM: TGI (SF-295 CNS)
31.5 µM: TGI (COLO 205 colon) | TGI (SK-MEL-28 melanoma)
51.5 µM: TGI (SK-OV-3 ovarian)
21 µM: TGI (RPMI-8226 leukemia)
44.6 µM: TGI (PC-3 prostate)
5.85 µM: TGI (RXF 393 renal)
50.6 µM: TGI (A549 NSCLC)
30.4 µM: TGI (ACHN renal)
42.1 µM: TGI (UACC-257 melanoma)
41.6 µM: TGI (CCRF-CEM leukemia)
24.5 µM: TGI (NCI-H23 lung)
31.1 µM: TGI (SNB-19 CNS)
29.8 µM: TGI (NCI-H226 lung)
48.9 µM: TGI (OVCAR-8 ovarian)
15.8 µM: TGI (M14 melanoma)
inactive: GI50 (MDA-MB-435) 11.2 µM | GI50 (RXF 393 renal) 1630 nM | GI50 (SF-295 CNS) 9.24 µM | GI50 (OVCAR-5 ovarian) 11.4 µM | GI50 (K-562 leukemia) 2610 nM | GI50 (TK-10 renal) 15.8 µM | GI50 (M14 melanoma) 6.74 µM | GI50 (DU-145 prostate) 12.1 µM | GI50 (KM12 colon) 10.4 µM | GI50 (NCI-H226 lung) 3.52 µM | GI50 (MALME-3M melanoma) 2620 nM | GI50 (U251 CNS) 6.76 µM | GI50 (HOP-92 NSCLC) 6.12 µM | GI50 (OVCAR-4 ovarian) 8.79 µM | GI50 (MCF7 breast) 1540 nM | GI50 (PC-3 prostate) 6.71 µM | GI50 (HCC-2998 colon) 2270 nM | GI50 (NCI-H522 lung) 3.89 µM | GI50 (SNB-19 CNS) 4.85 µM | GI50 (SF-539 CNS) 2990 nM | GI50 (NCI-H23 lung) 7.5 µM | GI50 (A498 renal) 6.02 µM | GI50 (MDA-MB-468 breast) 2300 nM | GI50 (OVCAR-8 ovarian) 11.7 µM | GI50 (NCI-H460 lung) 1650 nM | GI50 (HT29 colon) 4.41 µM | GI50 (SK-MEL-2 melanoma) 12.6 µM | GI50 (HL-60(TB) leukemia) 2010 nM | GI50 (LOX IMVI melanoma) 2310 nM | GI50 (SW-620 colon) 8.06 µM | GI50 (EKVX NSCLC) 10.5 µM | GI50 (COLO 205 colon) 7.67 µM | GI50 (SNB-75 CNS) 6.59 µM | GI50 (NCI/ADR-RES ovarian) 13.7 µM | GI50 (SK-OV-3 ovarian) 7.82 µM | GI50 (HOP-62 NSCLC) 10.2 µM | GI50 (CCRF-CEM leukemia) 4.77 µM | GI50 (UACC-62 melanoma) 9.25 µM | GI50 (CAKI-1 renal) 14.1 µM | GI50 (ACHN renal) 3.65 µM | GI50 (HCT-116 colon) 2330 nM | GI50 (SK-MEL-28 melanoma) 8.47 µM | GI50 (786-0 renal) 11 µM | GI50 (A549 NSCLC) 7.13 µM | GI50 (SF-268 CNS) 15.3 µM | GI50 (HS 578T breast) 8.04 µM | GI50 (MDA-MB-231 breast) 13.2 µM | GI50 (HCT-15 colon) 5.08 µM | GI50 (RPMI-8226 leukemia) 3.23 µM | GI50 (OVCAR-3 ovarian) 4.11 µM | GI50 (UO-31 renal) 5.28 µM | GI50 (SK-MEL-5 melanoma) 3.7 µM | GI50 (IGROV1 ovarian) 6.52 µM | GI50 (UACC-257 melanoma) 10.5 µM | GI50 (T-47D breast) 6.98 µM | GI50 (SN12C renal) 14.5 µM | GI50 (MOLT-4 leukemia) 1870 nM | GI50 (BT-549 breast) 10.5 µM
12.4 µM: TGI (SK-MEL-5 melanoma)
33.4 µM: TGI (HOP-92 NSCLC)
